Test [1] has as its system IB3-1. As to the kind of experiment: Reduction of TNFalpha protein level in cystic fibrosis IB3-1 cells at 8 ug after 24 hrs by ELISA relative to control. The class given is functional, Homo sapiens. Set-up: scale not given: the % may be the effect or the level left. Background: An ELISA detects its analyte on a solid surface through an enzyme-linked reagent.
Test [2] is described as follows: Cell viability of C38 cells at 16 ug/ml after 24 hrs by trypan blue exclusion test.
A short description of test [3]: Cell viability of 16HBE14o-S1 cells at 8 ug/ml after 24 hrs by trypan blue exclusion test. It counts as functional, cell-based. To be noted: Homo sapiens.
The nature of test [4]: Reduction of TNFalpha protein level in cystic fibrosis 2CFSMEo cells at 8 ug after 24 hrs by ELISA relative to control. Set-up: scale not given: the % may be the effect or the level left. It counts as functional, Homo sapiens.
A short description of test [5]: (§1) Reduction of NF-kappaB binding to DNA in cystic fibrosis 16HBE14o-AS3 cells at 8 ug after 24 hrs. It counts as functional, Homo sapiens. Set-up: scale not given: the % may be the effect or the level left.
Test [6] is described as follows: Cell viability of 2CFSMEo cells at 16 ug/ml after 24 hrs by trypan blue exclusion test. Conditions: Homo sapiens. The class given is functional.
A short description of test [7]: Cell viability of 2CFSMEo cells at 8 ug/ml after 24 hrs by trypan blue exclusion test. It counts as functional. Conditions: Homo sapiens.
A short description of test [8]: Reduction of TNFalpha mRNA level in cystic fibrosis 2CFSMEo cells at 8 ug after 24 hrs relative to control. It counts as functional, Homo sapiens. Set-up: scale not given: the % may be the effect or the level left.
In test [9] the test system is IB3-1. The experiment in a line: Reduction of TNFalpha mRNA level in cystic fibrosis IB3-1 cells at 8 ug after 24 hrs relative to control. It counts as functional, Homo sapiens. Set-up: scale not given: the % may be the effect or the level left.
The nature of test [10]: Reduction of TNFalpha mRNA level in cystic fibrosis 16HBE14o-AS3 cells at 8 ug after 24 hrs relative to control. The class given is functional, Homo sapiens. Set-up: scale not given: the % may be the effect or the level left.
A short description of test [11]: Cell viability of 16HBE14o-AS3 cells at 8 ug/ml after 24 hrs by trypan blue exclusion test. It counts as functional. To be noted: Homo sapiens.
A short description of test [12]: Reduction of TNFalpha protein level in cystic fibrosis 16HBE14oAS3 cells at 8 ug after 24 hrs by ELISA relative to control. The class given is functional, Homo sapiens. Set-up: scale not given: the % may be the effect or the level left.
Test [13] in a line: (§2) Reduction of Sp1 binding to DNA in cystic fibrosis 2CFSMEo cells at 8 ug after 24 hrs. It counts as functional, Homo sapiens. Set-up: scale not given: the % may be the effect or the level left.
Test [14] can be described thus: Cell viability of 16HBE14o-AS3 cells at 16 ug/ml after 24 hrs by trypan blue exclusion test. To be noted: Homo sapiens. The class given is functional.
Test [15] can be described thus: Cell viability of C38 cells at 8 ug/ml after 24 hrs by trypan blue exclusion test.
In test [16] the test system is IB3-1. As to the kind of experiment: Reduction of Sp1 binding to DNA in cystic fibrosis IB3-1 cells at 8 ug after 24 hrs. Set-up: scale not given: the % may be the effect or the level left. It counts as functional, Homo sapiens.
The nature of test [17]: (§3) Reduction of Sp1 binding to DNA in cystic fibrosis 16HBE14o-AS3 cells at 8 ug after 24 hrs. Set-up: scale not given: the % may be the effect or the level left. The class given is functional, Homo sapiens.
Test [18] concerns IB3-1. The experiment in a line: Reduction of NF-kappaB binding to DNA in cystic fibrosis IB3-1 cells at 8 ug after 24 hrs. It counts as functional, Homo sapiens. Set-up: scale not given: the % may be the effect or the level left.
A short description of test [19]: (§4) Reduction of NF-kappaB binding to DNA in cystic fibrosis 2CFSMEo cells at 8 ug after 24 hrs. The class given is functional, Homo sapiens. Set-up: scale not given: the % may be the effect or the level left.
A short description of test [20]: Cell viability of 16HBE14o-S1 cells at 16 ug/ml after 24 hrs by trypan blue exclusion test. The class given is functional, cell-based. Conditions: Homo sapiens.
Test [21] can be described thus: Cell viability of IB3-1 cells at 8 ug/ml after 24 hrs by trypan blue exclusion test. It counts as functional, cell-based. To be noted: Homo sapiens.
A short description of test [22]: Cell viability of IB3-1 cells at 16 ug/ml after 24 hrs by trypan blue exclusion test. The class given is functional, cell-based. To be noted: Homo sapiens.
For test [23], the species on record is Homo sapiens. The test is described as §1. It counts as functional.
For test [24], the species on record is Homo sapiens. The description is as §2. It counts as functional.
For test [25], the species on record is Homo sapiens. The test is described as §3. The class given is functional.
For test [26], the species on record is Homo sapiens. The test is described as §4. The class given is functional.

Activity calls are given as the source filed them. The calls are words filed in the database; no cut-off is given here.

`CC[C@H]1OC(=O)[C@H](C)[C@@H](O[C@H]2C[C@@](C)(OC)[C@@H](O)[C@H](C)O2)[C@H](C)[C@@H](O[C@@H]2O[C@H](C)C[C@H](N(C)C)[C@H]2O)[C@](C)(O)C[C@@H](C)CN(C)[C@H](C)[C@@H](O)[C@]1(C)O` [AZITHROMYCIN]: the Activity with IB3-1 [1] was 45%; in [2], less than 95%; in test [3], greater than 95%; in test [4], 40%; in test [5] it was 45%; in test [6], less than 95%. For the same compound, the Activity in [7] is greater than 95%; in test [8] it was 30%; in the test on IB3-1 [9] it was 35%; in [10], 25%; in test [11], greater than 95%; in test [12], 50%. Further, the Activity in test [13] is 65%; in test [14], less than 95%; in test [15], greater than 95%; with IB3-1 [16] it was 60%; in test [17] it was 64%; in the test with IB3-1 [18], 40%. For the same compound, the Activity in test [19] is 45%; in test [20], less than 95%; in test [21], greater than 95%; in test [22], less than 95%.
For the compound `CO[C@@H]1[C@@H](O[C@@H]2O[C@H](C)[C@@H](O[C@H]3C[C@@](C)(O)[C@@H](OC(=O)CC(C)C)[C@H](C)O3)[C@H](N(C)C)[C@H]2O)[C@@H](CC=O)C[C@@H](C)[C@@H](O)/C=C/C=C/C[C@@H](C)OC(=O)C[C@H]1OC(C)=O`, the result in the test filed under Homo sapiens [23], in the test listed under Homo sapiens [24], in the test on IB3-1 [16] (Homo sapiens), in the test listed under Homo sapiens [25], in the test on IB3-1 [18] (Homo sapiens) and in the test listed under Homo sapiens [26] was inactive.

For the origin of these results see ChEMBL document CHEMBL1142091, “Azithromycin selectively reduces tumor necrosis factor alpha levels in cystic fibrosis airway epithelial cells” (2007).
